Converted amounts (≈) assume the structure as drawn. Where two headings read alike, the source gives them in different places. *1 amine or outer side, *2 acyl side, *3 side chain or, on linkers, in order; H or OH if unused. Where a SMILES comes first, the peptide text is derived from it. [ ]: non-standard residue; d: D form. The star is where a group is joined. ξ: configuration not given here. NH(3-guanidinomethylbenzyl) = NC(N)=NCc1cccc(CN*)c1; NH(3-OCH2COOH-benzyl) = O=C(O)COc1cccc(CN*)c1; X1 = NCc1cccc(CC(N[*:1])C(=O)[*:2])c1; Sta = CC(C)C[C@H](N)[C@@H](O)CC(=O)O; NHCH2CH2SO3H = O=S(=O)(O)CCN*; X4 = NC(Cc1cccc(CN*)c1)C(=O)O; X3 = [O-][n+]1ccc(CN*)cc1; ξPhg = NC(C(=O)O)c1ccccc1; Boc = CC(C)(C)OC(=O)*; X2 = NC(CN*)c1ccccn1
Experiments:
Partition coefficient = type: physicochemical
Procedure: (§1) Following the standard solid phase methodology described above in Example 1, additional inhibitory peptides of the present invention were prepared. The peptides prepared are set out in the following table. Satisfactory amino acid analyses were obtained by Spinco method for each listed peptide. Also included in the table is solubility data of three types from which the improved solubility characteristics of the peptides of the present invention may be judged.

human plasma renin = biological target: T1, human plasma renin (Homo sapiens, UniProt P00797); test: Inhibition of human plasma renin; type: biochemical
T1 construct: Further assays measured human plasma renin and dog plasma renin; from tissue; host or cells: human plasma
T1 sequence (P00797 67-406): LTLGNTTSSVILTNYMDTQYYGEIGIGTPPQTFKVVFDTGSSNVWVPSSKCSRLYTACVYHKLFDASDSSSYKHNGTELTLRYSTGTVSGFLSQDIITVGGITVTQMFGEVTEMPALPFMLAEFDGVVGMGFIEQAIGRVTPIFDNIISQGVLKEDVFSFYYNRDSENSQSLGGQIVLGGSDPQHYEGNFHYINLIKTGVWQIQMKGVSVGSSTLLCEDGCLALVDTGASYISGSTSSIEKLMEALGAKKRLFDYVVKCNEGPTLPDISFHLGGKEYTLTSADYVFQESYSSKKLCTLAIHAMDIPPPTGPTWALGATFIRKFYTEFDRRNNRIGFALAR
Procedure: (§2) Assays were carried out in order to determine the inhibitory potency of the peptides of the present invention. […] Another assay measured the inhibition of human kidney renin purified as described in Bangham, D. R., Robertson, I., Robinson, J. I. S., Robinson, C. J., and Tree, M., Clinical Science and Molecular Medicine, 48 (Supp. 2): 136s-159s (1975), and further purified by affinity chromatography on pepstatin-aminohexyl-Sepharase described in Poe, M., Wu., J. K., Florance, J. R., Radkey, J. A., Bennet, C. D., and Hoogsteen, K., J. Biol. Chem. 258:2209-2216 (1983). The assay was also in accordance with Poe et al. cited above. Further assays measured human plasma renin and dog plasma renin in accordance with procedures described in Biger et al, Nature, 303:81-84 (1983).

dog plasma renin = biological target: T2, dog plasma renin (Canis lupus familiaris, UniProt Q6DYE7); test: Inhibition of dog plasma renin; type: biochemical; conditions: for Dog Plasma, % inhibition at 1000: at 1000 .eta.M
T2 construct: Further assays measured human plasma renin and dog plasma renin; from tissue; host or cells: dog plasma
T2 sequence (Q6DYE7 66-403): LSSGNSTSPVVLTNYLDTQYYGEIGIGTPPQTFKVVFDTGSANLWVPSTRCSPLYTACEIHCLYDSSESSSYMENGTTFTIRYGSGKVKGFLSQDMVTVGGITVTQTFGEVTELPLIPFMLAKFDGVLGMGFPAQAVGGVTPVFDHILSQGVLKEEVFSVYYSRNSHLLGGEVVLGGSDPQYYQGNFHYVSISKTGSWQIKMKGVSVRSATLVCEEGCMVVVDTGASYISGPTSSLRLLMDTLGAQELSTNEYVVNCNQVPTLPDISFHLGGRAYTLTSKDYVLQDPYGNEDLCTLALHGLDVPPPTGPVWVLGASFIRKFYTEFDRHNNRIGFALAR
Procedure: as §2

human kidney renin = biological target: T3, human kidney renin (Homo sapiens, UniProt P00797); test: Inhibition of purified human kidney renin; type: biochemical; conditions: dissociation constant of the inhibited enzyme-inhibitor complex
T3 construct: human kidney renin purified as described in Bangham; from tissue; host or cells: human kidney
T3 sequence (P00797 67-406): T1 sequence (P00797 67-406)
Procedure: as §2
The results expressed as KI values refer to the dissociation constant of the inhibited enzyme-inhibitor complex. This KI value was obtained as described above.

[1] = Solubility of the peptides in pH 7.4 buffer and in H2O; type: physicochemical
Procedure: as §1

nephrectomized rats = conditions: after the injection of hog renin into nephrectomized rats; cited from earlier work
[2] = pH 7.4, aqueous buffer, pH 7.4 Buffer mg/ml (solubility)
[3] = water, H2O, read-out: H2O mg/ml (solubility)

Compound | Partition Coefficient (Partition coefficient) | Ki (human kidney renin) | solubility [1, 2] | solubility ([1]; water, H2O mg/ml (solubility)) | further results
CC(C)C[C@H](NC(=O)C[C@H](O)[C@H](CC(C)C)NC(=O)[C@H](Cc1c[nH]cn1)NC(=O)[C@H](Cc1ccccc1)NC(=O)OC(C)(C)C)C(=O)NCCC(N)C(=O)O (single isomer, unassigned) [Example 5 (Isomer B)] | 10.7 | 2200 nM | – | – | Human Plasma, % inhibition at (concentration not given) (human plasma renin): 0%; Dog Plasma, % inhibition at 1000 (dog plasma renin; listed as 5 B): 22%
CC(C)C[C@H](NC(=O)C[C@H](O)[C@H](CC(C)C)NC(=O)[C@H](Cc1c[nH]cn1)NC(=O)[C@H](Cc1ccccc1)NC(=O)OC(C)(C)C)C(=O)NCc1cc[n+]([O-])cc1 [Example 7] (Boc-FH[Sta]L-X3) | – | – | 3.3 mg/mL (≈ 4240 µM) | 5.1 mg/mL (≈ 6550 µM) | –
CC(C)C[C@H](NC(=O)C[C@H](O)[C@H](CC(C)C)NC(=O)[C@H](Cc1c[nH]cn1)NC(=O)[C@H](Cc1ccccc1)NC(=O)OC(C)(C)C)C(=O)NC(C(=O)O)c1ccccc1 (stereo partly shown) [Example 8] (Boc-FH[Sta]L[ξPhg]-OH) | 16.5 | 990 nM | – | – | solubility ([1]; pH 7.4 buffer, pH 7.4, aqueous buffer, pH 7.4 buffer, read-out: pH 7.4 Buffer mg/ml (solubility)): 1.8 mg/mL (≈ 2230 µM); solubility [1, 3]: 0.6 mg/mL (≈ 744 µM); Human Plasma, % inhibition at (concentration not given) (human plasma renin): 44%; Dog Plasma, % inhibition at 1000 (dog plasma renin): 45%
CC(C)C[C@H](NC(=O)C[C@H](O)[C@H](CC(C)C)NC(=O)[C@H](Cc1c[nH]cn1)NC(=O)[C@H](Cc1ccccc1)NC(=O)OC(C)(C)C)C(=O)NC(Cc1cccc(CN)c1)C(=O)O (stereo partly shown) [Example 4] (Boc-FH[Sta]L[X1]-OH) | 68.2 | 4.9 nM | 1.3 mg/mL (≈ 1530 µM) | 0.33 mg/mL (≈ 389 µM) | –
CC(C)C[C@H](NC(=O)C[C@H](O)[C@H](CC(C)C)NC(=O)[C@H](Cc1c[nH]cn1)NC(=O)[C@H](Cc1ccccc1)NC(=O)OC(C)(C)C)C(=O)NCc1cccc(CN=C(N)N)c1 [Example 3] (Boc-FH[Sta]L-{NH(3-guanidinomethylbenzyl)}) | 10.6 | – | 0.77 mg/mL (≈ 924 µM) | 2.46 mg/mL (≈ 2950 µM) | –
CC(C)C[C@H](NC(=O)C[C@H](O)[C@H](CC(C)C)NC(=O)[C@H](Cc1c[nH]cn1)NC(=O)[C@H](Cc1ccccc1)NC(=O)OC(C)(C)C)C(=O)NCCC(N)C(=O)O (single isomer, unassigned) [Example 5 (Isomer A)] | 2.1 | 2.4 nM | – | – | solubility [1, 3]: 1.72 mg/mL (≈ 2230 µM); Human Plasma, % inhibition at 1000 (human plasma renin; at 1000 .eta.M): 25%; Dog Plasma, % inhibition at 1000 (dog plasma renin; listed as 5 A): 15%
CC(C)C[C@H](NC(=O)C[C@H](O)[C@H](CC(C)C)NC(=O)[C@H](Cc1c[nH]cn1)NC(=O)[C@H](Cc1ccccc1)NC(=O)OC(C)(C)C)C(=O)NCC(N)c1ccccn1 (stereo partly drawn) [Example 2] (Boc-FH[Sta]L-X2) | infinity | – | 0.32 mg/mL (≈ 404 µM) | 0.71 mg/mL (≈ 896 µM) | –
CC(C)C[C@H](NC(=O)C[C@H](O)[C@H](CC(C)C)NC(=O)[C@H](Cc1c[nH]cn1)NC(=O)[C@H](Cc1ccccc1)NC(=O)OC(C)(C)C)C(=O)NCc1cccc(CC(N)C(=O)O)c1 (stereo partly drawn) [Example 6] (Boc-FH[Sta]L-X4) | – | 12 nM | – | – | Human Plasma, % inhibition at (concentration not given) (human plasma renin): 15%; IC50 (dog plasma renin; read-out: Dog Plasma I50): 120 nM
pepstatin | – | – | – | – | blood pressure in vivo (nephrectomized rats): reduce blood pressure
CC(C)C[C@H](NC(=O)C[C@H](O)[C@H](CC(C)C)NC(=O)[C@H](Cc1c[nH]cn1)NC(=O)[C@H](Cc1ccccc1)NC(=O)OC(C)(C)C)C(=O)NCCS(=O)(=O)O [Example 10] (Boc-FH[Sta]L-NHCH2CH2SO3H) | 4.34 | – | > 9 mg/mL | > 9 mg/mL | –
CC(C)C[C@H](NC(=O)C[C@H](O)[C@H](CC(C)C)NC(=O)[C@H](Cc1c[nH]cn1)NC(=O)[C@H](Cc1ccccc1)NC(=O)OC(C)(C)C)C(=O)NCc1cccc(OCC(=O)O)c1 [Example 9] (Boc-FH[Sta]L-{NH(3-OCH2COOH-benzyl)}) | infinity | – | 1.5 mg/mL (≈ 1790 µM) | 0.23 mg/mL (≈ 275 µM) | –
